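Interpolation was linear, between the two tested concentrations surrounding the appropriate level; five concentrations were tested over 48 hours in 96-well plates. GI50 is the concentration that inhibits growth by half.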 The source made the active and inactive calls. Rule as the data show it: active = GI50 up to about 1.1 µM and inactive = higher.
Assays:
Experiment in all cases: growth of human tumour cells (NCI), 48 h
786-0 = system: 786-0
A498 = system: A498
A549 = system: A549
ACHN = system: ACHN
BT-549 = system: BT-549
CAKI-1 = system: CAKI-1
CCRF-CEM = system: CCRF-CEM
COLO 205 = system: COLO 205
DU-145 = system: DU-145
EKVX = system: EKVX
HCC 2998 = system: HCC 2998
HCT-116 = system: HCT-116
HCT-15 = system: HCT-15
HL-60 = system: HL-60
HOP-62 = system: HOP-62
HT-29 = system: HT-29
Hs-578T = system: Hs-578T
IGROV-1 = system: IGROV-1
K562 = system: K562
KM12 = system: KM12
LOX IMVI = system: LOX IMVI
M14 = system: M14
MCF7 = system: MCF7
MDA-MB-231 = system: MDA-MB-231
MDA-MB-435 = system: MDA-MB-435
MDA-N = system: MDA-N
MOLT-4 = system: MOLT-4
Malme-3M = system: Malme-3M
NCI-H226 = system: NCI-H226
NCI-H23 = system: NCI-H23
NCI-H460 = system: NCI-H460
NCI-H522 = system: NCI-H522
NCI/ADR-RES = system: NCI/ADR-RES
OVCAR-3 = system: OVCAR-3
OVCAR-5 = system: OVCAR-5
OVCAR-8 = system: OVCAR-8
PC-3 = system: PC-3
RPMI-8226 = system: RPMI-8226
SF-268 = system: SF-268
SF-295 = system: SF-295
SF-539 = system: SF-539
SK-MEL-28 = system: SK-MEL-28
SK-MEL-2 = system: SK-MEL-2
SK-MEL-5 = system: SK-MEL-5
SK-OV-3 = system: SK-OV-3
SN12C = system: SN12C
SNB-19 = system: SNB-19
SNB-75 = system: SNB-75
SR = system: SR
SW-620 = system: SW-620
T47D = system: T47D
TK-10 = system: TK-10
U-251 = system: U-251
UACC-257 = system: UACC-257
UACC-62 = system: UACC-62
UO-31 = system: UO-31
HOP-92 = system: HOP-92
OVCAR-4 = system: OVCAR-4
RXF 393 = system: RXF 393

CCCCCCCCCCCC(=O)c1c(O)cc(C)oc1=O was tested, and the GI50 (786-0) was 80.9 µM (inactive), the GI50 (A498) was 81.8 µM (inactive) and the GI50 (A549) was 27.8 µM (inactive). For the same compound, the GI50 (ACHN) was 31.5 µM (inactive), the GI50 (BT-549) was 87.1 µM (inactive) and the GI50 (CAKI-1) was 40.4 µM (inactive). For the same compound, the GI50 (CCRF-CEM) was 23.7 µM (inactive), the GI50 (COLO 205) was 26.5 µM (inactive) and the GI50 (DU-145) was 48.3 µM (inactive). For the same compound, the GI50 (EKVX) was 38.5 µM (inactive), the GI50 (HCC 2998) was 42 µM (inactive) and the GI50 (HCT-116) was 45.7 µM (inactive). For the same compound, the GI50 (HCT-15) was 41.7 µM, the GI50 (HL-60) was 42.4 µM (inactive) and the GI50 (HOP-62) was 60 µM (inactive). The GI50 (HT-29) was 66.7 µM (inactive), the GI50 (Hs-578T) was 51.6 µM (inactive) and the GI50 (IGROV-1) was 55.5 µM (inactive). The GI50 (K562) was 28.6 µM (inactive), the GI50 (KM12) was 44.9 µM (inactive) and the GI50 (LOX IMVI) was 28.1 µM (inactive). The GI50 (M14) was 79.1 µM (inactive), the GI50 (MCF7) was 37.8 µM (inactive) and the GI50 (MDA-MB-231) was 28.8 µM (inactive). For the same compound, the GI50 (MDA-MB-435) was 49.5 µM (inactive), the GI50 (MDA-N) was 34.6 µM (inactive) and the GI50 (MOLT-4) was 23.1 µM (inactive). For the same compound, the GI50 (Malme-3M) was 45 µM (inactive), the GI50 (NCI-H226) was 45.6 µM (inactive) and the GI50 (NCI-H23) was 34.8 µM (inactive). The GI50 (NCI-H460) was 57.4 µM (inactive), the GI50 (NCI-H522) was 42.4 µM (inactive) and the GI50 (NCI/ADR-RES) was 33.4 µM (inactive). For the same compound, the GI50 (OVCAR-3) was 55.5 µM (inactive), the GI50 (OVCAR-5) was 92.7 µM (inactive) and the GI50 (OVCAR-8) was 33.5 µM (inactive). The GI50 (PC-3) was 27.2 µM (inactive), the GI50 (RPMI-8226) was > 100 µM (inactive) and the GI50 (SF-268) was 42.2 µM (inactive). For the same compound, the GI50 (SF-295) was 42.8 µM (inactive), the GI50 (SF-539) was 23.8 µM (inactive) and the GI50 (SK-MEL-28) was 75 µM (inactive). The GI50 (SK-MEL-2) was 56.4 µM (inactive), the GI50 (SK-MEL-5) was 29 µM (inactive) and the GI50 (SK-OV-3) was 64.6 µM (inactive). For the same compound, the GI50 (SN12C) was 33.3 µM (inactive), the GI50 (SNB-19) was 62.7 µM (inactive) and the GI50 (SNB-75) was 36.4 µM (inactive). For the same compound, the GI50 (SR) was > 10 µM (inactive), the GI50 (SW-620) was 41.1 µM (inactive) and the GI50 (T47D) was 34.8 µM (inactive). The GI50 (TK-10) was > 100 µM (inactive), the GI50 (U-251) was 48.5 µM (inactive) and the GI50 (UACC-257) was 57.9 µM (inactive). For the same compound, the GI50 (UACC-62) was 49.7 µM (inactive) and the GI50 (UO-31) was 40.6 µM (inactive).

For CCOc1cc(-c2nc3ccccn3c2/N=C/c2cc([N+](=O)[O-])cc([N+](=O)[O-])c2O)ccc1O, the GI50 (786-0) was > 100 µM (inactive), the GI50 (A498) was > 100 µM (inactive) and the GI50 (A549) was > 100 µM (inactive). For the same compound, the GI50 (ACHN) was > 100 µM (inactive), the GI50 (BT-549) was > 100 µM (inactive) and the GI50 (CAKI-1) was > 100 µM (inactive). The GI50 (CCRF-CEM) was 45 µM (inactive), the GI50 (COLO 205) was > 100 µM (inactive) and the GI50 (DU-145) was > 100 µM (inactive). For the same compound, the GI50 (EKVX) was > 100 µM (inactive), the GI50 (HCT-116) was > 100 µM (inactive) and the GI50 (HCT-15) was over 100 µM. For the same compound, the GI50 (HL-60) was > 100 µM (inactive), the GI50 (HOP-62) was > 100 µM (inactive) and the GI50 (HOP-92) was > 100 µM (inactive). For the same compound, the GI50 (HT-29) was > 100 µM (inactive), the GI50 (Hs-578T) was > 100 µM (inactive) and the GI50 (IGROV-1) was > 100 µM (inactive). The GI50 (K562) was > 100 µM (inactive), the GI50 (KM12) was > 100 µM (inactive) and the GI50 (LOX IMVI) was > 100 µM (inactive). For the same compound, the GI50 (M14) was > 100 µM (inactive), the GI50 (MCF7) was > 100 µM (inactive) and the GI50 (MDA-MB-231) was > 100 µM (inactive). For the same compound, the GI50 (MDA-MB-435) was > 100 µM (inactive), the GI50 (MDA-N) was > 100 µM (inactive) and the GI50 (MOLT-4) was > 100 µM (inactive). The GI50 (Malme-3M) was > 100 µM (inactive), the GI50 (NCI-H23) was > 100 µM (inactive) and the GI50 (NCI-H460) was > 100 µM (inactive). For the same compound, the GI50 (NCI-H522) was > 100 µM (inactive), the GI50 (NCI/ADR-RES) was > 100 µM (inactive) and the GI50 (OVCAR-3) was > 100 µM (inactive). For the same compound, the GI50 (OVCAR-4) was > 100 µM (inactive), the GI50 (OVCAR-5) was > 100 µM (inactive) and the GI50 (OVCAR-8) was > 100 µM (inactive). For the same compound, the GI50 (PC-3) was > 100 µM (inactive), the GI50 (RPMI-8226) was > 100 µM (inactive) and the GI50 (RXF 393) was > 100 µM (inactive). For the same compound, the GI50 (SF-268) was > 100 µM (inactive), the GI50 (SF-295) was > 100 µM (inactive) and the GI50 (SF-539) was > 100 µM (inactive). The GI50 (SK-MEL-28) was > 100 µM (inactive), the GI50 (SK-MEL-2) was > 100 µM (inactive) and the GI50 (SK-MEL-5) was > 100 µM (inactive). For the same compound, the GI50 (SK-OV-3) was > 100 µM (inactive), the GI50 (SN12C) was > 100 µM (inactive) and the GI50 (SNB-19) was > 100 µM (inactive). For the same compound, the GI50 (SNB-75) was 88.1 µM (inactive), the GI50 (SR) was > 100 µM (inactive) and the GI50 (SW-620) was > 100 µM (inactive). The GI50 (T47D) was > 100 µM (inactive), the GI50 (TK-10) was > 100 µM (inactive) and the GI50 (U-251) was > 100 µM (inactive). For the same compound, the GI50 (UACC-257) was > 100 µM (inactive), the GI50 (UACC-62) was > 100 µM (inactive) and the GI50 (UO-31) was > 100 µM (inactive).

COC(=O)c1c(OC(C)=O)ccc2c1c1c(OC(C)=O)c3ccccc3c(OC(C)=O)c1n2C was tested, and the GI50 (786-0) was 26.4 µM (inactive), the GI50 (A549) was 29.9 µM (inactive) and the GI50 (ACHN) was 15.4 µM (inactive). For the same compound, the GI50 (BT-549) was 21.8 µM (inactive), the GI50 (CAKI-1) was 17.8 µM (inactive) and the GI50 (CCRF-CEM) was 23.2 µM (inactive). For the same compound, the GI50 (COLO 205) was 29.2 µM (inactive), the GI50 (DU-145) was 19.9 µM (inactive) and the GI50 (EKVX) was 10.1 µM (inactive). The GI50 (HCC 2998) was 23.7 µM (inactive), the GI50 (HCT-116) was 19.1 µM (inactive) and the GI50 (HCT-15) was 27.9 µM. The GI50 (HL-60) was 22.1 µM (inactive), the GI50 (HOP-62) was 24.4 µM (inactive) and the GI50 (HOP-92) was 4.39 µM (inactive). For the same compound, the GI50 (HT-29) was 38.4 µM (inactive), the GI50 (Hs-578T) was 18.3 µM (inactive) and the GI50 (IGROV-1) was 7.87 µM (inactive). For the same compound, the GI50 (K562) was 19.2 µM (inactive), the GI50 (KM12) was 20.5 µM (inactive) and the GI50 (M14) was 27.6 µM (inactive). For the same compound, the GI50 (MCF7) was 28.7 µM (inactive), the GI50 (MDA-MB-231) was 31.5 µM (inactive) and the GI50 (MDA-MB-435) was 37.8 µM (inactive). The GI50 (MDA-N) was 32.2 µM (inactive), the GI50 (MOLT-4) was 15.4 µM (inactive) and the GI50 (Malme-3M) was 37.7 µM (inactive). The GI50 (NCI-H226) was 47.1 µM (inactive), the GI50 (NCI-H23) was 40.8 µM (inactive) and the GI50 (NCI-H460) was 26.4 µM (inactive). For the same compound, the GI50 (NCI-H522) was 12.9 µM (inactive), the GI50 (NCI/ADR-RES) was 30.1 µM (inactive) and the GI50 (OVCAR-3) was 14.7 µM (inactive). For the same compound, the GI50 (OVCAR-4) was 19.4 µM (inactive), the GI50 (OVCAR-5) was 38.1 µM (inactive) and the GI50 (OVCAR-8) was 22.6 µM (inactive). For the same compound, the GI50 (PC-3) was 30.4 µM (inactive), the GI50 (RPMI-8226) was 16.2 µM (inactive) and the GI50 (RXF 393) was 29.5 µM (inactive). For the same compound, the GI50 (SF-268) was 22.6 µM (inactive), the GI50 (SF-295) was 21.2 µM (inactive) and the GI50 (SF-539) was 20.7 µM (inactive). The GI50 (SK-MEL-28) was 53.7 µM (inactive), the GI50 (SK-MEL-2) was 17.3 µM (inactive) and the GI50 (SK-MEL-5) was 6.04 µM (inactive). The GI50 (SK-OV-3) was 16.1 µM (inactive), the GI50 (SN12C) was 53.7 µM (inactive) and the GI50 (SNB-19) was 39.4 µM (inactive). For the same compound, the GI50 (SNB-75) was 2.06 µM (inactive), the GI50 (SR) was 14.5 µM (inactive) and the GI50 (T47D) was 12.3 µM (inactive). For the same compound, the GI50 (TK-10) was 26.8 µM (inactive), the GI50 (U-251) was 24.8 µM (inactive) and the GI50 (UACC-62) was 17.9 µM (inactive). For the same compound, the GI50 (UO-31) was 25.1 µM (inactive).
